Data from publication PMC3758034, “New Insight into the SAR of Pyrimido [4,5-b][1,4] Benzothiazines as 15-lipoxygenase Inhibitors” (Iranian Journal of Basic Medical Sciences, 2013).

Target: soybean 15-lipoxygenase (SLO) (Glycine max, UniProt P08170)
Assay: SLO screening assay (spectrophotometric MBTH-DMAB peroxide formation method, 598 nm)
Type: biochemical
Conditions: pH = 8.3 versus pH = 7.0
Procedure: Linoleic acid and two assay solutions (A and B) were prepared in advance. Solution A was 50 mM DMAB in a l00 mM phosphate buffer (pH 7.0). Solution B was a mixture of l0 mM MBTH (3 mL), hemoglobin (5 mg/mL, 3 mL) in 50 mM phosphate buffer at pH 5.0 (25 mL). A linoleic acid solution was prepared by mixing 5 mg of linoleic acid with 0.5 mL ethanol and then diluting with KOH 100 mM to a final volume of 5 mL. […] A control test was done with the same volume of ethanol. After the pre-incubation, linoleic acid solution (50 µL) was added to start the peroxidation reaction, and, 7 min later, solution A (270 µL) and then solution B (130 µL) was added to start the color formation. 5 min later, 200 µL of a 2% SDS solution was added to terminate the reaction. The absorbance at 598 nm was compared with control test. The IC50 results are outlined in Table 1.
It is interesting to note that the aforementioned amino acids with the exception of Val769 and Phe576 are conserved ([18], [19]). […] The inhibitory activity of compounds 1a-f, 2a-f towards SLO enzyme was determined by measuring the amount of peroxide formation. In this method, with the help of a spectrophotometer and by using a mixture of MBTH (3-methyl-2-benzothiazolonhydrazone) and DMAB (3-dimethylaminobenzoic acid) indicators in the presence of hemoglobin at the wavelength of 598 nm, the peroxide concentration was determined ([16]).

Sequence of soybean 15-lipoxygenase (SLO) (P08170 whole entry): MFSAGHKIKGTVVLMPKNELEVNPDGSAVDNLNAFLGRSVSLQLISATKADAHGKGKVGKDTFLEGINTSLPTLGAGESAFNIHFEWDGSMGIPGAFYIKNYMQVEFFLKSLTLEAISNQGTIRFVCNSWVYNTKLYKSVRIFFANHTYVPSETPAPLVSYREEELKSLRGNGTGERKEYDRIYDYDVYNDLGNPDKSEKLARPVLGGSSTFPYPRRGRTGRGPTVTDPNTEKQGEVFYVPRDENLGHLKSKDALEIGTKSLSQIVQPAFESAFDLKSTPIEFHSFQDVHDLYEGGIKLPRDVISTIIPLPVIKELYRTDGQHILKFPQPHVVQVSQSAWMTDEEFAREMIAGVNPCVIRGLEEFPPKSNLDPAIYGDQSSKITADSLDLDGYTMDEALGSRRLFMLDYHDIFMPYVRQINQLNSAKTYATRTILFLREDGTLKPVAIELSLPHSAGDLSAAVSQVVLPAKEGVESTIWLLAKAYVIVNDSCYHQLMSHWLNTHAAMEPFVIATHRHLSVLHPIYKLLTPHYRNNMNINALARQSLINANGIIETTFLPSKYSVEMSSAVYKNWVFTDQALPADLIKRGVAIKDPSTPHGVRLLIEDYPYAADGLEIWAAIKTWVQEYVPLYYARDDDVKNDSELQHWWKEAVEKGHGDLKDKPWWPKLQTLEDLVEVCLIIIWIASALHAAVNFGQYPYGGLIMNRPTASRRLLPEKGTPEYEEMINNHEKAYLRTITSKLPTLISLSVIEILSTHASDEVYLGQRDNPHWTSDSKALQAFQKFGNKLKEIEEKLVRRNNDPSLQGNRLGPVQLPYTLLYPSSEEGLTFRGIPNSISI

SMILES	IC50 at higher pH
CC1CCN(c2ncc3c(n2)Sc2ccccc2N3)CC1 [1c]	nearly unchanged
Cc1nc(N2CCC(C)CC2)nc2c1Nc1ccccc1S2 [2c]	nearly unchanged
